{"source": "patent US8192962B2", "about": "“Processes for detecting toxic substances” (Daikin Industries, Ltd., priority 2001, dated 2012)", "system": "Energy system protein genes", "assay": "DNA chip mRNA expression in yeast, energy system protein genes (Table 4)", "assay_type": "cell-based, Saccharomyces cerevisiae S288C", "in_short": "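Measured as treated-to-untreated fluorescence ratio on a full-genome yeast DNA chip. Cells (S288C, YPD, 25° C.) were exposed in log phase for two hours to one chemical, dosed to curb growth without killing.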"}
{"smiles": "CCCCCCCCCCCCOS(=O)(=O)[O-].[Na+]", "note": "[(18), sodium lauryl sulfate]", "values": [{"measurement": "The level of expressed mRNA in the presence of chemical substance/The level of expressed mRNA in the absence of chemical substance", "setting": "yeast gene YJR009C", "value": 1.3}, {"measurement": "The level of expressed mRNA in the presence of chemical substance/The level of expressed mRNA in the absence of chemical substance", "setting": "yeast gene YJR048W", "value": 1.2}, {"measurement": "The level of expressed mRNA in the presence of chemical substance/The level of expressed mRNA in the absence of chemical substance", "setting": "yeast gene YJR121W, cells incubated two hours with the chemical substance", "value": 1.4}, {"measurement": "The level of expressed mRNA in the presence of chemical substance/The level of expressed mRNA in the absence of chemical substance", "setting": "yeast gene YJR155W", "value": 1.4}, {"measurement": "The level of expressed mRNA in the presence of chemical substance/The level of expressed mRNA in the absence of chemical substance", "setting": "yeast gene YKL016C, cells incubated two hours with the chemical substance", "value": 1.7}, {"measurement": "The level of expressed mRNA in the presence of chemical substance/The level of expressed mRNA in the absence of chemical substance", "setting": "yeast gene YKL060C, cells incubated two hours with the chemical substance", "value": 1.7}, {"measurement": "The level of expressed mRNA in the presence of chemical substance/The level of expressed mRNA in the absence of chemical substance", "setting": "yeast gene YKL141W, cells incubated two hours with the chemical substance", "value": 1.8}, {"measurement": "The level of expressed mRNA in the presence of chemical substance/The level of expressed mRNA in the absence of chemical substance", "setting": "yeast gene YKL148C, cells incubated two hours with the chemical substance", "value": 1.0}, {"measurement": "The level of expressed mRNA in the presence of chemical substance/The level of expressed mRNA in the absence of chemical substance", "setting": "yeast gene YKR009C, cells incubated two hours with the chemical substance", "value": 2.5}, {"measurement": "The level of expressed mRNA in the presence of chemical substance/The level of expressed mRNA in the absence of chemical substance", "setting": "yeast gene YKR058W, cells incubated two hours with the chemical substance, 25° C., YPD medium", "value": 1.6}, {"measurement": "The level of expressed mRNA in the presence of chemical substance/The level of expressed mRNA in the absence of chemical substance", "setting": "yeast gene YKR097W", "value": 1.5}, {"measurement": "The level of expressed mRNA in the presence of chemical substance/The level of expressed mRNA in the absence of chemical substance", "setting": "yeast gene YLL041C, cells incubated two hours with the chemical substance", "value": 1.7}, {"measurement": "The level of expressed mRNA in the presence of chemical substance/The level of expressed mRNA in the absence of chemical substance", "setting": "yeast gene YLR038C, cells incubated two hours with the chemical substance", "value": 2.1}, {"measurement": "The level of expressed mRNA in the presence of chemical substance/The level of expressed mRNA in the absence of chemical substance", "setting": "yeast gene YLR044C, cells incubated two hours with the chemical substance", "value": 0.9}, {"measurement": "The level of expressed mRNA in the presence of chemical substance/The level of expressed mRNA in the absence of chemical substance", "setting": "yeast gene YLR134W, cells incubated two hours with the chemical substance", "value": 0.8}, {"measurement": "The level of expressed mRNA in the presence of chemical substance/The level of expressed mRNA in the absence of chemical substance", "setting": "yeast gene YLR258W, cells incubated two hours with the chemical substance", "value": 2.0}, {"measurement": "The level of expressed mRNA in the presence of chemical substance/The level of expressed mRNA in the absence of chemical substance", "setting": "yeast gene YLR284C, cells incubated two hours with the chemical substance", "value": 8.1}, {"measurement": "The level of expressed mRNA in the presence of chemical substance/The level of expressed mRNA in the absence of chemical substance", "setting": "yeast gene YLR295C, cells incubated two hours with the chemical substance, 25° C., YPD medium", "value": 1.5}, {"measurement": "The level of expressed mRNA in the presence of chemical substance/The level of expressed mRNA in the absence of chemical substance", "setting": "yeast gene YLR304C, cells incubated two hours with the chemical substance", "value": 0.7}, {"measurement": "The level of expressed mRNA in the presence of chemical substance/The level of expressed mRNA in the absence of chemical substance", "setting": "yeast gene YLR345W", "value": 1.4}, {"measurement": "The level of expressed mRNA in the presence of chemical substance/The level of expressed mRNA in the absence of chemical substance", "setting": "yeast gene YLR354C, cells incubated two hours with the chemical substance", "value": 1.5}, {"measurement": "The level of expressed mRNA in the presence of chemical substance/The level of expressed mRNA in the absence of chemical substance", "setting": "yeast gene YLR377C, cells incubated two hours with the chemical substance", "value": 1.4}, {"measurement": "The level of expressed mRNA in the presence of chemical substance/The level of expressed mRNA in the absence of chemical substance", "setting": "yeast gene YLR395C, cells incubated two hours with the chemical substance", "value": 2.3}, {"measurement": "The level of expressed mRNA in the presence of chemical substance/The level of expressed mRNA in the absence of chemical substance", "setting": "yeast gene YML087C", "value": 0.8}, {"measurement": "The level of expressed mRNA in the presence of chemical substance/The level of expressed mRNA in the absence of chemical substance", "setting": "yeast gene YML120C, cells incubated two hours with the chemical substance", "value": 1.6}, {"measurement": "The level of expressed mRNA in the presence of chemical substance/The level of expressed mRNA in the absence of chemical substance", "setting": "yeast gene YML129C, cells incubated two hours with the chemical substance", "value": 1.3}, {"measurement": "The level of expressed mRNA in the presence of chemical substance/The level of expressed mRNA in the absence of chemical substance", "setting": "yeast gene YMR073C, cells incubated two hours with the chemical substance", "value": 1.2}, {"measurement": "The level of expressed mRNA in the presence of chemical substance/The level of expressed mRNA in the absence of chemical substance", "setting": "yeast gene YMR118C", "value": 1.0}, {"measurement": "The level of expressed mRNA in the presence of chemical substance/The level of expressed mRNA in the absence of chemical substance", "setting": "yeast gene YMR205C, cells incubated two hours with the chemical substance", "value": 0.5}, {"measurement": "The level of expressed mRNA in the presence of chemical substance/The level of expressed mRNA in the absence of chemical substance", "setting": "yeast gene YMR261C, cells incubated two hours with the chemical substance", "value": 1.1}, {"measurement": "The level of expressed mRNA in the presence of chemical substance/The level of expressed mRNA in the absence of chemical substance", "setting": "yeast gene YMR267W, cells incubated two hours with the chemical substance, 25° C., YPD medium", "value": 1.3}, {"measurement": "The level of expressed mRNA in the presence of chemical substance/The level of expressed mRNA in the absence of chemical substance", "setting": "yeast gene YMR323W, cells incubated two hours with the chemical substance", "value": 0.6}, {"measurement": "The level of expressed mRNA in the presence of chemical substance/The level of expressed mRNA in the absence of chemical substance", "setting": "yeast gene YNL071W", "value": 1.2}, {"measurement": "The level of expressed mRNA in the presence of chemical substance/The level of expressed mRNA in the absence of chemical substance", "setting": "yeast gene YNL202W, cells incubated two hours with the chemical substance", "value": 3.3}, {"measurement": "The level of expressed mRNA in the presence of chemical substance/The level of expressed mRNA in the absence of chemical substance", "setting": "yeast gene YNL241C", "value": 1.0}, {"measurement": "The level of expressed mRNA in the presence of chemical substance/The level of expressed mRNA in the absence of chemical substance", "setting": "yeast gene YNL331C", "value": 1.3}, {"measurement": "The level of expressed mRNA in the presence of chemical substance/The level of expressed mRNA in the absence of chemical substance", "setting": "yeast gene YOL086C, cells incubated two hours with the chemical substance", "value": 1.3}, {"measurement": "The level of expressed mRNA in the presence of chemical substance/The level of expressed mRNA in the absence of chemical substance", "setting": "yeast gene YOL165C", "value": 1.0}, {"measurement": "The level of expressed mRNA in the presence of chemical substance/The level of expressed mRNA in the absence of chemical substance", "setting": "yeast gene YOR142W, cells incubated two hours with the chemical substance", "value": 1.0}, {"measurement": "The level of expressed mRNA in the presence of chemical substance/The level of expressed mRNA in the absence of chemical substance", "setting": "yeast gene YOR178C, cells incubated two hours with the chemical substance", "value": 1.5}, {"measurement": "The level of expressed mRNA in the presence of chemical substance/The level of expressed mRNA in the absence of chemical substance", "setting": "yeast gene YOR388C, cells incubated two hours with the chemical substance", "value": 0.9}, {"measurement": "The level of expressed mRNA in the presence of chemical substance/The level of expressed mRNA in the absence of chemical substance", "setting": "yeast gene YPL031C, cells incubated two hours with the chemical substance", "value": 1.2}, {"measurement": "The level of expressed mRNA in the presence of chemical substance/The level of expressed mRNA in the absence of chemical substance", "setting": "yeast gene YPL061W, cells incubated two hours with the chemical substance", "value": 2.6}, {"measurement": "The level of expressed mRNA in the presence of chemical substance/The level of expressed mRNA in the absence of chemical substance", "setting": "yeast gene YPL088W", "value": 8.3}, {"measurement": "The level of expressed mRNA in the presence of chemical substance/The level of expressed mRNA in the absence of chemical substance", "setting": "yeast gene YPL171C", "value": 1.5}, {"measurement": "The level of expressed mRNA in the presence of chemical substance/The level of expressed mRNA in the absence of chemical substance", "setting": "yeast gene YPL240C", "value": 1.0}, {"measurement": "The level of expressed mRNA in the presence of chemical substance/The level of expressed mRNA in the absence of chemical substance", "setting": "yeast gene YPL262W, cells incubated two hours with the chemical substance", "value": 1.2}, {"measurement": "The level of expressed mRNA in the presence of chemical substance/The level of expressed mRNA in the absence of chemical substance", "setting": "yeast gene YPL275W, cells incubated two hours with the chemical substance", "value": 1.0}, {"measurement": "The level of expressed mRNA in the presence of chemical substance/The level of expressed mRNA in the absence of chemical substance", "setting": "yeast gene YPL276W, cells incubated two hours with the chemical substance", "value": 0.8}, {"measurement": "The level of expressed mRNA in the presence of chemical substance/The level of expressed mRNA in the absence of chemical substance", "setting": "yeast gene YPR048W, cells incubated two hours with the chemical substance", "value": 0.8}, {"measurement": "The level of expressed mRNA in the presence of chemical substance/The level of expressed mRNA in the absence of chemical substance", "setting": "yeast gene YPR184W, cells incubated two hours with the chemical substance", "value": 1.7}]}
